Assay results from the kinase profiling compilation of Christmann-Franck et al. (2016).
Values joined by “and” are separate entries in the source; they are usually repeats but may differ in a detail not shown here. Equal entries are not always repeated.

Legend:
Assay in all cases: radiometric filter-binding kinase assay, Kinase HotSpot
Conditions in all cases: compound 0.5 µM; ATP 10 µM
TTK (human) = TTK (human) (UniProt P33981)
LYN (human) = LYN (human) (UniProt P07948)
PDGFRB (human) = PDGFRB (human) (UniProt P09619)
CSNK1D (human) = CSNK1D (human) (UniProt P48730)
PLK3 (human) = PLK3 (human) (UniProt Q9H4B4)
RAF1 (human) = RAF1 (human) (UniProt P04049)
RPS6KB2 (human) = RPS6KB2 (human) (UniProt Q9UBS0)
Chain of RPS6KB2 (human) (Q9UBS0 whole entry, looked up): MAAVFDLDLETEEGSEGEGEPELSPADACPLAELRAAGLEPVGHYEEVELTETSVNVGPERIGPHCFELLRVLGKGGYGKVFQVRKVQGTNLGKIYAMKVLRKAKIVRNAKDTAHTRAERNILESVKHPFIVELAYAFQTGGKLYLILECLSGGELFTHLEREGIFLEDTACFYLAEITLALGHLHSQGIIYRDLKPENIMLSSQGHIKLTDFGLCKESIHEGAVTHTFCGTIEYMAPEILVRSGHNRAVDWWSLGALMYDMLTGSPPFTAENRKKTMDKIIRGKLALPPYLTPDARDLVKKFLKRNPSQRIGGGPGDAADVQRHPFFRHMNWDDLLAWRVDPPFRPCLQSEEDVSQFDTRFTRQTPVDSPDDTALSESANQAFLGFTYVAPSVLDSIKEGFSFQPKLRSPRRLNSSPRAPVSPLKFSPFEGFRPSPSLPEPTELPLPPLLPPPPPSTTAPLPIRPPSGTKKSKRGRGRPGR

CSNK1G1 (human) = CSNK1G1 (human) (UniProt Q9HCP0)
CAMK2D (human) = CAMK2D (human) (UniProt Q13557)
IKBKB (human) = IKBKB (human) (UniProt O14920)
FYN (human) = FYN (human) (UniProt P06241)
STK24 (human) = STK24 (human) (UniProt Q9Y6E0)
Chain of STK24 (human) (Q9Y6E0 whole entry, looked up): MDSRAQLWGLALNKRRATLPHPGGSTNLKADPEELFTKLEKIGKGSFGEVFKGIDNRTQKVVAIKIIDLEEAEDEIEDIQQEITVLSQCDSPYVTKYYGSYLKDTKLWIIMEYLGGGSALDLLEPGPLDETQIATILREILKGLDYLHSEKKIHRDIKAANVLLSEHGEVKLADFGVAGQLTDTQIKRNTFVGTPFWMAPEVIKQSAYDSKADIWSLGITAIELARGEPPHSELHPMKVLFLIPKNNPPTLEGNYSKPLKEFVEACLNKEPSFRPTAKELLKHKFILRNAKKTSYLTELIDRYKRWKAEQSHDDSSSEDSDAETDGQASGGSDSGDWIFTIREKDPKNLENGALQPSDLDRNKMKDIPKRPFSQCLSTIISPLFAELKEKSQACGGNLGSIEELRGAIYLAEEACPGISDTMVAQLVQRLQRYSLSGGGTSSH

STK16 (human) = STK16 (human) (UniProt O75716)
MAPK12 (human) = MAPK12 (human) (UniProt P53778)
SGK3 (human) = SGK3 (human) (UniProt Q96BR1)
EPHA5 (human) = EPHA5 (human) (UniProt P54756)
CAMK1D (human) = CAMK1D (human) (UniProt Q8IU85)
CDC42BPB (human) = CDC42BPB (human) (UniProt Q9Y5S2)
CSNK1G3 (human) = CSNK1G3 (human) (UniProt Q9Y6M4)
EPHB3 (human) = EPHB3 (human) (UniProt P54753)
Chain of EPHB3 (human) (P54753 whole entry, looked up): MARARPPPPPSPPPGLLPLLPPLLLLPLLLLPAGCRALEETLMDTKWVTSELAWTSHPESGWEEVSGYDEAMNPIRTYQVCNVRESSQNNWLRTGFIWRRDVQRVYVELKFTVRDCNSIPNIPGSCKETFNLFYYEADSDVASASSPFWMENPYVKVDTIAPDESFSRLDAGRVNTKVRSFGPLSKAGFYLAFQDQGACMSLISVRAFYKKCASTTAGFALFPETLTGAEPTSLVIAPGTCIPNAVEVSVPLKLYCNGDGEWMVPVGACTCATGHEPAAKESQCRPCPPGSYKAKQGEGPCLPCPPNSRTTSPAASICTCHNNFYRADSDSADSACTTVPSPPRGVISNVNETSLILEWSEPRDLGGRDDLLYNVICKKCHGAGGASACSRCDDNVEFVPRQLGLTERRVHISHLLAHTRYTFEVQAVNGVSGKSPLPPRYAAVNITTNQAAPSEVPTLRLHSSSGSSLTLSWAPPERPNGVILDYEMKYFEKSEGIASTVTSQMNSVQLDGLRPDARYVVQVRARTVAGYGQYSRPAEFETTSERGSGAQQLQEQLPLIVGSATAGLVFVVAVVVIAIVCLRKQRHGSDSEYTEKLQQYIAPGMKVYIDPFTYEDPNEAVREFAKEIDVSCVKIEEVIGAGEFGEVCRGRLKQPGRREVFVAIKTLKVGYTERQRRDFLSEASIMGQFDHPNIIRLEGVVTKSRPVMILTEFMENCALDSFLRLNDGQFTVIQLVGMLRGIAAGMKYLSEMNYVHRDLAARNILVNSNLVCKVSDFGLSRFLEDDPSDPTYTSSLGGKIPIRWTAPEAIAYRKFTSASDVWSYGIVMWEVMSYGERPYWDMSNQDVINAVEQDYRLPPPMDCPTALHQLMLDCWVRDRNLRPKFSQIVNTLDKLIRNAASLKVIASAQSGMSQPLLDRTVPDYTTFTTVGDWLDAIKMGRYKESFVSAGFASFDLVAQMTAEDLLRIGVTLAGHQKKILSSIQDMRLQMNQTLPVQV

TSSK1B (human) = TSSK1B (human) (UniProt Q9BXA7)
WEE1 (human) = WEE1 (human) (UniProt P30291)
EPHA6 (human) = EPHA6 (human) (UniProt Q9UF33)
Chain of EPHA6 (human) (Q9UF33 whole entry, looked up): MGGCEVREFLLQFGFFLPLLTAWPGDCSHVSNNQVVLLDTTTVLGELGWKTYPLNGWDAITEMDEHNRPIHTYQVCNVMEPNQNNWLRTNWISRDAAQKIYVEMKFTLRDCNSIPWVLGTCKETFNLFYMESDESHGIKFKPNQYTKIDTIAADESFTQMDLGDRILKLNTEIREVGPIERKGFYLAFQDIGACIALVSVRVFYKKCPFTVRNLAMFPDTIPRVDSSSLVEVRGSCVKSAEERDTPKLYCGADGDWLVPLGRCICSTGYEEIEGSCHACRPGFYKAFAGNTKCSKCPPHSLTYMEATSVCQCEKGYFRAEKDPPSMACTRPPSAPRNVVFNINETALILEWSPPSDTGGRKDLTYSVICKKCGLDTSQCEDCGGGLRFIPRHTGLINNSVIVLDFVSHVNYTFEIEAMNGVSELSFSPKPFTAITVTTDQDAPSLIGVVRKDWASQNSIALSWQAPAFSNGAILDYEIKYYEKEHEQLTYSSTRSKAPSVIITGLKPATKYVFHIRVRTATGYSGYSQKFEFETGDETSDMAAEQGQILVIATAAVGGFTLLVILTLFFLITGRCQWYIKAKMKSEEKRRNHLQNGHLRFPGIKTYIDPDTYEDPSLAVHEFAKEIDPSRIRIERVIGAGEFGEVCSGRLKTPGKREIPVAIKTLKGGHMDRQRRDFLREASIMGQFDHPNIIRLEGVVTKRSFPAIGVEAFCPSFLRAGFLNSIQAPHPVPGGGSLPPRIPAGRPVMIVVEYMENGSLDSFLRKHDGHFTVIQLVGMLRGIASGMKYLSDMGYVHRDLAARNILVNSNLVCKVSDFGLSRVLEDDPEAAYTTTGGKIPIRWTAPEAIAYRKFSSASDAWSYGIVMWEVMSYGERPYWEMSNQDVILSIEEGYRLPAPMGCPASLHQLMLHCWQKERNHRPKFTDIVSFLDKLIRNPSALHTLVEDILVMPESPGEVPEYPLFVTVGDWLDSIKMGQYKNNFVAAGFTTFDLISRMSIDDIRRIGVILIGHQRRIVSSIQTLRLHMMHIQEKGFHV

MYLK (human) = MYLK (human) (UniProt Q15746)
HIPK2 (human) = HIPK2 (human) (UniProt Q9H2X6)
MAPK14 (human) = MAPK14 (human) (UniProt Q16539)
Chain of MAPK14 (human) (Q16539 whole entry, looked up): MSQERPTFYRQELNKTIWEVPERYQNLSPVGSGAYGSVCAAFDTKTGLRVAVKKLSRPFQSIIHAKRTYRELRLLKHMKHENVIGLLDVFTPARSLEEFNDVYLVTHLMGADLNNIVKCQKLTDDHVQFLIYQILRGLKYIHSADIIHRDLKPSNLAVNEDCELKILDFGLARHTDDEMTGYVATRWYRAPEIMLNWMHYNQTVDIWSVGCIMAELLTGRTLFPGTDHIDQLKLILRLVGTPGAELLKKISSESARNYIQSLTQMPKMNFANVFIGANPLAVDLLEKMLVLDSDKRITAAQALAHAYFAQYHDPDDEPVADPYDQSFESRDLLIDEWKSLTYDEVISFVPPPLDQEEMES

ZAP70 (human) = ZAP70 (human) (UniProt P43403)
IGF1R (human) = IGF1R (human) (UniProt P08069)
CAMK2B (human) = CAMK2B (human) (UniProt Q13554)
STK4 (human) = STK4 (human) (UniProt Q13043)
Chain of STK4 (human) (Q13043 whole entry, looked up): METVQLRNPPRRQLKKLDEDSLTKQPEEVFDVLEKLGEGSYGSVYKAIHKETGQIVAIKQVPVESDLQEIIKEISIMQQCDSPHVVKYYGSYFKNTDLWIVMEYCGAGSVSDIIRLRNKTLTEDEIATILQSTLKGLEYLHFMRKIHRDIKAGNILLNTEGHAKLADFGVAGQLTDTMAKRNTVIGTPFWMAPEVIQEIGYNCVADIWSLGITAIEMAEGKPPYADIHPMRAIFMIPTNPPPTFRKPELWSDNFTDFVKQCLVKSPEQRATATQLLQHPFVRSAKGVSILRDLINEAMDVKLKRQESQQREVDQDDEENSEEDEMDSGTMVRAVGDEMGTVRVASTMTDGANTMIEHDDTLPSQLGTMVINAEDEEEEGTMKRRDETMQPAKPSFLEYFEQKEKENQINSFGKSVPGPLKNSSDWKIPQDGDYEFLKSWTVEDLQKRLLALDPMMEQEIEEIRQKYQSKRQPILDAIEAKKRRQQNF

MAP4K4 (human) = MAP4K4 (human) (UniProt O95819)
TBK1 (human) = TBK1 (human) (UniProt Q9UHD2)
FER (human) = FER (human) (UniProt P16591)
MAP3K3 (human) = MAP3K3 (human) (UniProt Q99759)
Chain of MAP3K3 (human) (Q99759 whole entry, looked up): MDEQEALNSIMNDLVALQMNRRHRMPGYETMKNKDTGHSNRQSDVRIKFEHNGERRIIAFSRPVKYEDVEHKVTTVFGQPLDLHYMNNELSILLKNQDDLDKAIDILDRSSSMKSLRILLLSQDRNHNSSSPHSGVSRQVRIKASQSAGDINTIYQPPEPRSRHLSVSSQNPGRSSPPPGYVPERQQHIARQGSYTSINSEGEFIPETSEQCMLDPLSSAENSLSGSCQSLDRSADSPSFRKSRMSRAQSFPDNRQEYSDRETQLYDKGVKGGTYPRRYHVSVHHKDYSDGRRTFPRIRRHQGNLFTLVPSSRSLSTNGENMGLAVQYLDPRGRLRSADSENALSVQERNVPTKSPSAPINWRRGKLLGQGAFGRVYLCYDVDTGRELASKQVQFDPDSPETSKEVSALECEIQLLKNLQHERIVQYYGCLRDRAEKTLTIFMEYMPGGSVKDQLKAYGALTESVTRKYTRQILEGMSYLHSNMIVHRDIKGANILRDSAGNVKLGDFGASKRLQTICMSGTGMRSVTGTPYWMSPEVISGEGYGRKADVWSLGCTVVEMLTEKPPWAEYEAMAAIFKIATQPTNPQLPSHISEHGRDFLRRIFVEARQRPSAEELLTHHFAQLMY

NTRK1 (human) = NTRK1 (human) (UniProt P04629)
FES (human) = FES (human) (UniProt P07332)
EPHA8 (human) = EPHA8 (human) (UniProt P29322)
CDK2 CCNA2 (human) = CDK2 CCNA2 (human) (UniProt P24941+P20248)
MAPKAPK5 (human) = MAPKAPK5 (human) (UniProt Q8IW41)
CDK2 CCNE1 (human) = CDK2 CCNE1 (human) (UniProt P24941+P24864)
FGFR3 (human) = FGFR3 (human) (UniProt P22607)
CAMK1G (human) = CAMK1G (human) (UniProt Q96NX5)

Chain of LYN (human) (P07948 whole entry, looked up): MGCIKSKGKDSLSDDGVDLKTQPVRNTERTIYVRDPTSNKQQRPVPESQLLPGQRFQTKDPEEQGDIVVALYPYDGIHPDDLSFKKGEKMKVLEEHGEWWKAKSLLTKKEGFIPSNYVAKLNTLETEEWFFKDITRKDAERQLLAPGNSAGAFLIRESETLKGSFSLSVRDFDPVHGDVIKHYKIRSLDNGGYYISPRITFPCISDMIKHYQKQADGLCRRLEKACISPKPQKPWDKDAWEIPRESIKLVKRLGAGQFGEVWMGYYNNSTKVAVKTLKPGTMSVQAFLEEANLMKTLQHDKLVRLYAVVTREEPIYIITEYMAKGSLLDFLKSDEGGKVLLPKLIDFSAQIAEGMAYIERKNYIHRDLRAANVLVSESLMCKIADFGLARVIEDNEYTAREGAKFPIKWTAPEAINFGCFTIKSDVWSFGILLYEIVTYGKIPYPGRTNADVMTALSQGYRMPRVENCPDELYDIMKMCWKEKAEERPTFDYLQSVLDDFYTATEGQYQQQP

For `Nc1ccc2ncnc(NCCc3ccc(Oc4ccccc4)cc3)c2c1`, the residual activity (TTK (human)) was 97.6%, the residual activity (LYN (human)) was 101% and 103% and the residual activity (PDGFRB (human)) was 105%. It also gave a residual activity (CSNK1D (human)) of 100%, a residual activity (PLK3 (human)) of 98.7% and a residual activity (RAF1 (human)) of 98.2%. For the same compound, the residual activity (RPS6KB2 (human)) was 99.2%, the residual activity (CSNK1G1 (human)) was 97.6% and the residual activity (CAMK2D (human)) was 98.9%. The residual activity (IKBKB (human)) was 100%, the residual activity (FYN (human)) was 103% and the residual activity (STK24 (human)) was 107%. The residual activity (STK16 (human)) was 94.7%, the residual activity (MAPK12 (human)) was 93.6% and the residual activity (SGK3 (human)) was 106%. For the same compound, the residual activity (EPHA5 (human)) was 102%, the residual activity (CAMK1D (human)) was 102% and the residual activity (CDC42BPB (human)) was 105%. The residual activity (CSNK1G3 (human)) was 96.8%, the residual activity (EPHB3 (human)) was 97.3% and the residual activity (TSSK1B (human)) was 100%. For the same compound, the residual activity (WEE1 (human)) was 86.2%, the residual activity (EPHA6 (human)) was 92.8% and the residual activity (MYLK (human)) was 98.5%. It also gave a residual activity (HIPK2 (human)) of 110%, a residual activity (MAPK14 (human)) of 95.7% and a residual activity (ZAP70 (human)) of 93.2%. It also gave a residual activity (IGF1R (human)) of 99.7%, a residual activity (CAMK2B (human)) of 95.1% and a residual activity (STK4 (human)) of 95.8%. For the same compound, the residual activity (MAP4K4 (human)) was 99.2%, the residual activity (TBK1 (human)) was 100% and the residual activity (FER (human)) was 99.5%. For the same compound, the residual activity (MAP3K3 (human)) was 106%, the residual activity (NTRK1 (human)) was 108% and the residual activity (FES (human)) was 99.6%. The residual activity (EPHA8 (human)) was 101%, the residual activity (CDK2 CCNA2 (human)) was 95.8% and the residual activity (MAPKAPK5 (human)) was 101%. The residual activity (CDK2 CCNE1 (human)) was 95%, the residual activity (FGFR3 (human)) was 101% and the residual activity (CAMK1G (human)) was 102%.
With `N#CC(C#N)=C(N)/C(C#N)=C/c1ccc(O)cc1` the residual activity (TTK (human)) was 94.4%, the residual activity (LYN (human)) was 102% and 92.2% and the residual activity (PDGFRB (human)) was 98.8%. The residual activity (CSNK1D (human)) was 98.7%, the residual activity (PLK3 (human)) was 63.6% and the residual activity (RAF1 (human)) was 86.3%. It also gave a residual activity (RPS6KB2 (human)) of 96.8%, a residual activity (CSNK1G1 (human)) of 93.4% and a residual activity (CAMK2D (human)) of 91.1%. The residual activity (IKBKB (human)) was 102%, the residual activity (FYN (human)) was 98.4% and the residual activity (STK24 (human)) was 103%. It also gave a residual activity (STK16 (human)) of 109%, a residual activity (MAPK12 (human)) of 92.6% and a residual activity (SGK3 (human)) of 103%. For the same compound, the residual activity (EPHA5 (human)) was 94.3%, the residual activity (CAMK1D (human)) was 98.9% and the residual activity (CDC42BPB (human)) was 109%. For the same compound, the residual activity (CSNK1G3 (human)) was 100%, the residual activity (EPHB3 (human)) was 99.5% and the residual activity (TSSK1B (human)) was 111%. It also gave a residual activity (WEE1 (human)) of 93.7%, a residual activity (EPHA6 (human)) of 98.6% and a residual activity (MYLK (human)) of 101%. It also gave a residual activity (HIPK2 (human)) of 102%, a residual activity (MAPK14 (human)) of 104% and a residual activity (ZAP70 (human)) of 96%. For the same compound, the residual activity (IGF1R (human)) was 90.6%, the residual activity (CAMK2B (human)) was 93.3% and the residual activity (STK4 (human)) was 99.1%. For the same compound, the residual activity (MAP4K4 (human)) was 91.2%, the residual activity (TBK1 (human)) was 91.1% and the residual activity (FER (human)) was 91.1%. It also gave a residual activity (MAP3K3 (human)) of 78.6%, a residual activity (NTRK1 (human)) of 102% and a residual activity (FES (human)) of 101%. It also gave a residual activity (EPHA8 (human)) of 102%, a residual activity (CDK2 CCNA2 (human)) of 97.9% and a residual activity (MAPKAPK5 (human)) of 94.2%. For the same compound, the residual activity (CDK2 CCNE1 (human)) was 97%, the residual activity (FGFR3 (human)) was 98.9% and the residual activity (CAMK1G (human)) was 104%.
